US12492184B2, “Heteroaryl compounds, preparation methods and uses thereof” (InventisBio Co., Ltd., priority 2020, dated 2025)

Tested on: HEK-Blue IL23 Reporter
Assay: HEK-Blue IL-23 STAT3 Reporter Assay
Type: cell-based, human
Settings: HEK-Blue IL23 cells stimulated with IL-23 overnight; SEAP read with QUANTI-Blue at OD655
Description: HEK-Blue IL23 cells (InvivoGen catalog #HKB-IL23) are designed for the detection of bioactive IL-23 by monitoring the activation of the STAT3 pathway. They were generated by stably introducing the genes for the human IL-23 receptor, STAT3, and the SEAP (secreted embryonic alkaline phosphatase) reporter gene into human HEK293 cell line.
Briefly, around 50,000 cells in DMEM medium supplemented with 10% heat inactivated FBS (˜180 ul) were seeded into each well and incubate for 48 hours at 37° C. with 5% CO2 in air. On day 3, one microliter of compound and 20 ul IL-23 were transferred to the assay plate respectively. The plate was left in the 37° C. incubator overnight. Two microliter of cell supernatant was transferred to a 384-well plate, and 18 ul of resuspended QUANTI-Blue solution was added to each well. SLAP levels were determined using Tecan Spark at OD655.
Cells with no IL23 added were used as Low control. Cells stimulated with IL23 were used as High control. Inhibition rate was calculated with the formula of % inhibition=100*(High control−Treated Well)/(High Control−Low control). IL-23 reporter assay inhibition IC50 was calculated with the equation of Y=Bottom+(Top-Bottom)/(1+10^((Log IC50−X)*HillSlope)).

| SMILES | IC50 |
| --- | --- |
| [2H]C([2H])([2H])NC(=O)c1nnc(NC(=O)C2CC2)cc1Nc1nccc2c1S(C)(=O)=NC2 (stereo not shown) [Compound 56] | 0.3 nM |
| [2H]C([2H])([2H])NC(=O)c1nnc(NC(=O)C2CC2)cc1Nc1nccc2c1S(C)(=O)=NC2 (stereo not shown) [Compound 57] | 51.7 nM |
| [2H]C([2H])([2H])NC(=O)c1nnc(NC(=O)C2CCCC2)cc1Nc1nccc2c1S(C)(=O)=NC2 (stereo not shown) [Compound 90] | 4.2 nM |
| [2H]C([2H])([2H])NC(=O)c1nnc(NC(=O)C2CCCC2)cc1Nc1nccc2c1S(C)(=O)=NC2 (stereo not shown) [Compound 91] | ≥ 1000 nM |
| [2H]C([2H])([2H])NC(=O)c1nnc(NC(=O)N2CCCC2)cc1Nc1nccc2c1S(C)(=O)=NC2 (stereo not shown) [Compound 92] | ≥ 1000 nM |
| [2H]C([2H])([2H])NC(=O)c1nnc(NC(=O)N2CCCC2)cc1Nc1nccc2c1S(C)(=O)=NC2 (stereo not shown) [Compound 93] | 13.6 nM |
| [2H]C([2H])([2H])NC(=O)c1nnc(NC(=O)[C@H]2CC23CC3)cc1Nc1ncccc1S1(=O)=NCCC1 (stereo partly shown) [Compound 95] | 19.5 nM |
| [2H]C([2H])([2H])NC(=O)c1nnc(NC(=O)[C@H]2CC23CC3)cc1Nc1ncccc1S(C)(=O)=NC (stereo partly shown) [Compound 98] | 188 nM |

Same assay, conditions: Homo sapiens, HEK-Blue IL-23, HEK-Blue IL23 cells stimulated with IL-23 overnight; SEAP read with QUANTI-Blue at OD655

| SMILES | IC50 |
| --- | --- |
| [2H]C([2H])([2H])NC(=O)c1nnc(NC(=O)C2CC2)cc1Nc1ncc(OCCN(C)C)cc1S(C)(=O)=O [Compound 61] | 19.9 nM |
| [2H]C([2H])([2H])NC(=O)c1nnc(NC(=O)C2CC2)cc1Nc1ncc(C2(F)COC2)cc1S(C)(=O)=O [Compound 62] | 71.9 nM |
| [2H]C([2H])([2H])NC(=O)c1nnc(NC(=O)C2CC2)cc1Nc1ncc(OC2COC2)cc1S(C)(=O)=O [Compound 63] | 1.9 nM |
| [2H]C([2H])([2H])NC(=O)c1nnc(NC(=O)C2CC2)cc1Nc1ncc(OC(C)C)cc1S(C)(=O)=O [Compound 64] | 0.6 nM |
| [2H]C([2H])([2H])NC(=O)c1nnc(NC(=O)C2CC2)cc1Nc1ncc(N2CCOC[C@H]2C)cc1S(C)(=O)=O [Compound 65] | 0.5 nM |
| [2H]C([2H])([2H])NC(=O)c1nnc(NC(=O)C2CC2)cc1Nc1ncc(OCC(C)(C)O)cc1S(C)(=O)=O [Compound 66] | 5.7 nM |
| [2H]C([2H])([2H])NC(=O)c1nnc(NC(=O)C2CC2)cc1Nc1ncc(OC[C@H](C)OC)cc1S(C)(=O)=O [Compound 67] | 1 nM |
| [2H]C([2H])([2H])NC(=O)c1nnc(NC(=O)C2CC2)cc1Nc1ncc(OC[C@@H](C)OC)cc1S(C)(=O)=O [Compound 68] | 0.6 nM |
| [2H]C([2H])([2H])NC(=O)c1nnc(NC(=O)C2CC2)cc1Nc1ncc(O[C@@H](C)COC)cc1S(C)(=O)=O [Compound 69] | 0.2 nM |
| [2H]C([2H])([2H])NC(=O)c1nnc(NC(=O)C2CC2)cc1Nc1ncc(O[C@H](C)COC)cc1S(C)(=O)=O [Compound 70] | 1.3 nM |
| [2H]C([2H])([2H])NC(=O)c1nnc(NC(=O)C2CC2)cc1Nc1nc(C)sc1S(C)(=O)=O [Compound 71] | 5.4 nM |
| [2H]C([2H])([2H])NC(=O)c1nnc(NC(=O)C2CC2)cc1Nc1nc(C)c(F)cc1S(C)(=O)=O [Compound 72] | 1.6 nM |
| [2H]C([2H])([2H])NC(=O)c1nnc(NC(=O)C2CC2)cc1Nc1ncc(OC[C@H](C)OC(F)F)cc1S(C)(=O)=O [Compound 73] | 1.1 nM |
| [2H]C([2H])([2H])NC(=O)c1nnc(NC(=O)C2CC2)cc1Nc1ncc(OC[C@H](C)OC=O)cc1S(C)(=O)=O [Compound 74] | 2.2 nM |
| [2H]C([2H])([2H])NC(=O)c1nnc(NC(=O)C2CC2)cc1Nc1ncc(OC[C@@H](C)OC(F)F)cc1S(C)(=O)=O [Compound 75] | 1.6 nM |
| [2H]C([2H])([2H])NC(=O)c1nnc(NC(=O)C2CC2)cc1Nc1ncc(OC[C@@H](C)OC=O)cc1S(C)(=O)=O [Compound 76] | 2.5 nM |
| [2H]C([2H])([2H])NC(=O)c1cnc(NC(=O)C2CC2)cc1Nc1ncc(C2CC2)cc1S(C)(=O)=O [Compound 77] | 1.1 nM |
| [2H]C([2H])([2H])NC(=O)c1nnc(NC(=O)C2CC2)cc1Nc1ncc(OCCOC(F)F)cc1S(C)(=O)=O [Compound 78] | 0.8 nM |
| [2H]C([2H])([2H])NC(=O)c1nnc(NC(=O)C2CC2)cc1Nc1ncc(OCCOC=O)cc1S(C)(=O)=O [Compound 79] | 3.3 nM |
| [2H]C([2H])([2H])NC(=O)c1cnc(NC(=O)C2CC2)cc1Nc1ncc(Cl)cc1S(C)(=O)=O [Compound 80] | 1.5 nM |
| [2H]C([2H])([2H])NC(=O)c1cnc(NC(=O)C2CC2)cc1Nc1ncc(OC(C)C)cc1S(C)(=O)=O [Compound 81] | 0.9 nM |
| [2H]C([2H])([2H])NC(=O)c1nnc(NC(=O)C2CC2)cc1Nc1ncc(N2CCOC[C@@H]2C)cc1S(C)(=O)=O [Compound 82] | 9 nM |
| [2H]C([2H])([2H])NC(=O)c1nnc(NC(=O)C2CC2)cc1Nc1nc(C2CC2)sc1S(C)(=O)=O [Compound 83] | 7.4 nM |
| [2H]C([2H])([2H])NC(=O)c1nnc(NC(=O)[C@H]2C[C@@H](OC)C2)cc1Nc1ncc(C2CC2)cc1S(C)(=O)=O [Compound 84] | 4.1 nM |
| [2H]C([2H])([2H])NC(=O)c1nnc(NC(=O)[C@H]2C[C@H](OC)C2)cc1Nc1ncc(C2CC2)cc1S(C)(=O)=O [Compound 85] | 2.1 nM |

| SMILES | IC50 |
| --- | --- |
| [2H]C([2H])([2H])NC(=O)c1nnc(NC(=O)[C@H]2C[C@@H](NC)C2)cc1Nc1ncc(C2CC2)cc1S(C)(=O)=O [Compound 86] | 30.8 nM |
| [2H]C([2H])([2H])NC(=O)c1nnc(NC(=O)[C@H]2C[C@H](NC)C2)cc1Nc1ncc(C2CC2)cc1S(C)(=O)=O [Compound 87] | 19.9 nM |
| [2H]C([2H])([2H])NC(=O)c1nnc(NC(=O)NC2CCC2)cc1Nc1ncc(OC)cc1S(C)(=O)=O [Compound 88] | 0.6 nM |
| [2H]C([2H])([2H])NC(=O)c1nnc(NC(=O)N2CCC2)cc1Nc1ncc(OC)cc1S(C)(=O)=O [Compound 89] | 7.9 nM |
| [2H]C([2H])([2H])CC(=O)c1nnc(NC(=O)[C@H]2CC23CC3)cc1Nc1ncccc1S(C)(=O)=O [Compound 96] | 189 nM |
| [2H]C([2H])([2H])NC(=O)c1nnc(NC(=O)[C@H]2CC23CC3)cc1Nc1ncc(SC(F)(F)F)cc1S(C)(=O)=O [Compound 99] | 15.6 nM |
| [2H]C([2H])([2H])NC(=O)c1nnc(NC(=O)[C@H]2CC23CC3)cc1Nc1nc(C)c(OC)cc1S(C)(=O)=O [Compound 100] | 2.1 nM |
| [2H]C([2H])([2H])NC(=O)c1nnc(NC(=O)[C@H]2CC23CC3)cc1Nc1nccc(C2CC2)c1S(C)(=O)=O [Compound 101] | 11.5 nM |
| [2H]C([2H])([2H])NC(=O)c1nnc(NC(=O)[C@H]2CC23CC3)cc1Nc1ncc(Cl)cc1S(C)(=O)=O [Compound 102] | 3.7 nM |
| [2H]C([2H])([2H])NC(=O)c1nnc(NC(=O)[C@H]2CC23CC3)cc1Nc1nscc1S(C)(=O)=O [Compound 103] | 5.7 nM |
| [2H]C([2H])([2H])CC(=O)c1nnc(NC(=O)[C@H]2CC23CC3)cc1Nc1ncc(OC)cc1S(C)(=O)=O [Compound 104] | 119 nM |
| [2H]C([2H])([2H])NC(=O)c1nnc(NC(=O)[C@H]2CC23CC3)cc1Nc1ncc(C(F)F)cc1S(C)(=O)=O [Compound 105] | 6.7 nM |
| [2H]C([2H])([2H])NC(=O)c1nnc(NC(=O)[C@H]2CC23CC3)cc1Nc1ncc(OC(F)F)cc1S(C)(=O)=O [Compound 106] | 3.6 nM |
| [2H]C([2H])([2H])NC(=O)c1nnc(NC(=O)[C@H]2CC23CC3)cc1Nc1ncc(OCCOC)cc1S(C)(=O)=O [Compound 107] | 0.8 nM |
| [2H]C([2H])([2H])NC(=O)c1nnc(NC(=O)[C@H]2CC23CC3)cc1Nc1ncc(OCCN(C)C)cc1S(C)(=O)=O [Compound 108] | 19.5 nM |
| [2H]C([2H])([2H])NC(=O)c1nnc(NC(=O)[C@H]2CC23CC3)cc1Nc1ncc(C2(F)COC2)cc1S(C)(=O)=O [Compound 109] | 284 nM |
| [2H]C([2H])([2H])NC(=O)c1nnc(NC(=O)[C@H]2CC23CC3)cc1Nc1ncc(OC2COC2)cc1S(C)(=O)=O [Compound 110] | 2.7 nM |
| [2H]C([2H])([2H])NC(=O)c1nnc(NC(=O)[C@H]2CC23CC3)cc1Nc1ncc(OCC(C)(C)O)cc1S(C)(=O)=O [Compound 111] | 7.5 nM |
| [2H]C([2H])([2H])NC(=O)c1nnc(NC(=O)[C@H]2CC23CC3)cc1Nc1ncc(OC[C@H](C)OC)cc1S(C)(=O)=O [Compound 112] | 2.7 nM |
| [2H]C([2H])([2H])NC(=O)c1nnc(NC(=O)[C@H]2CC23CC3)cc1Nc1ncc(OC[C@@H](C)OC)cc1S(C)(=O)=O [Compound 113] | 1.2 nM |
| [2H]C([2H])([2H])NC(=O)c1nnc(NC(=O)[C@H]2CC23CC3)cc1Nc1ncc(O[C@@H](C)COC)cc1S(C)(=O)=O [Compound 114] | 1 nM |
| [2H]C([2H])([2H])NC(=O)c1nnc(NC(=O)[C@H]2CC23CC3)cc1Nc1ncc(O[C@H](C)COC)cc1S(C)(=O)=O [Compound 115] | 3.5 nM |
| [2H]C([2H])([2H])NC(=O)c1nnc(NC(=O)[C@@H]2CC23CC3)cc1Nc1ncc(OCCOC(F)F)cc1S(C)(=O)=O [Compound 116] | 3 nM |
| [2H]C([2H])([2H])NC(=O)c1nnc(NC(=O)[C@@H]2CC23CC3)cc1Nc1ncc(OCCOC=O)cc1S(C)(=O)=O [Compound 117] | 5.7 nM |
| [2H]C([2H])([2H])NC(=O)c1cnc(NC(=O)[C@@H]2CC23CC3)cc1Nc1ncc(C2CC2)cc1S(C)(=O)=O [Compound 118] | 0.6 nM |
